Experimental data: patent US12281149B2, “Modulators of G-protein coupled receptors” (priority 2021, dated 2025)
*1 amine or outer side, *2 acyl side, *3 side chain or, on linkers, in order; H or OH if unused. Where a SMILES comes first, the peptide text is derived from it. Side-chain parts run from the residue outwards. [ ]: non-standard residue; d: D form. The star is where a group is joined. Isobutyryl(2-(3-CN-5-F-Ph)) = CC(C)(C(=O)*)c1cc(F)cc(C#N)c1; C20 diacid = O=C(O)CCCCCCCCCCCCCCCCCCC(=O)*; NH(4-OCF3-phenyl) = FC(F)(F)Oc1ccc(N*)cc1; γGlu = O=C(O)[C@H](CCC(=O)[*:2])N[*:1]; X27 = O=C1CC(C(=O)*)(c2ccccc2)CN1; X15 = O=C(C1(c2cccc(F)c2)CC1)*; X4 = O=C(C(F)(F)c1ccc(F)cc1)*; AEEA = NCCOCCOCC(=O)O; Aib = CC(C)(N)C(=O)O; CO = O=C([*:1])[*:2]; GABA = NCCCC(=O)O; βAla = NCCC(=O)O

Experiments:
Type in all cases: cell-based
GIP receptor [1] = target: T1, GIP receptor (Homo sapiens, UniProt P48546); experiment: PathHunter β-arrestin assay, GIP receptor; design: host or cells: PathHunter CHO-K1 GIPR β-Arrestin Cell Line; settings: β-arrestin-2 recruitment, PathHunter CHO-K1 GIPR β-Arrestin Cell Line, 90 min at 37° C.; normalized to GIP; read-out: GIPR β Arrestin EC50
T1 sequence (P48546 22-466): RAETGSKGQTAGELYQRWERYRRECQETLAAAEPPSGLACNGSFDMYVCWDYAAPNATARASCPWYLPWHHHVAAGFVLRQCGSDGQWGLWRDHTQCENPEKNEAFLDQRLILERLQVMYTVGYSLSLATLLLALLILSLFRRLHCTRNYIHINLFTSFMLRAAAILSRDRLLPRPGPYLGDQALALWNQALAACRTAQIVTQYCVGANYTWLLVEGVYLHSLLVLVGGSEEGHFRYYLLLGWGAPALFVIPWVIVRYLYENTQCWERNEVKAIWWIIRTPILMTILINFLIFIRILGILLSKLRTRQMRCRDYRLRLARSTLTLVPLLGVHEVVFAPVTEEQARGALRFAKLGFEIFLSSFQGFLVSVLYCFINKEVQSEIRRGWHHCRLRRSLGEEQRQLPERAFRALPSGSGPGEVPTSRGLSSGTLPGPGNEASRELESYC

GIP receptor [2] = target: T1, GIP receptor; experiment: HitHunter cAMP assay, GIP receptor; settings: for EC50: CHO cells stably expressing GIP receptor, cAMP accumulation, 30 min, read-out: EC50 GIP-1R; for Emax: CHO cells, cAMP, normalized to maximum signal from GIP (high) and DMSO (low), read-out: Emax GIP-1R
GLP-1 receptor [3] = target: T2, GLP-1 receptor (Homo sapiens, UniProt P43220); experiment: HitHunter cAMP assay, GLP-1 receptor; settings: for EC50: CHO cells stably expressing human GLP-1 receptor, cAMP accumulation, 30 min, read-out: EC50 GLP-1R; for Emax: CHO cells, cAMP, normalized to maximum signal from GLP-1 (high) and DMSO (low), read-out: Emax GLP-1R
T2 sequence (P43220 24-463): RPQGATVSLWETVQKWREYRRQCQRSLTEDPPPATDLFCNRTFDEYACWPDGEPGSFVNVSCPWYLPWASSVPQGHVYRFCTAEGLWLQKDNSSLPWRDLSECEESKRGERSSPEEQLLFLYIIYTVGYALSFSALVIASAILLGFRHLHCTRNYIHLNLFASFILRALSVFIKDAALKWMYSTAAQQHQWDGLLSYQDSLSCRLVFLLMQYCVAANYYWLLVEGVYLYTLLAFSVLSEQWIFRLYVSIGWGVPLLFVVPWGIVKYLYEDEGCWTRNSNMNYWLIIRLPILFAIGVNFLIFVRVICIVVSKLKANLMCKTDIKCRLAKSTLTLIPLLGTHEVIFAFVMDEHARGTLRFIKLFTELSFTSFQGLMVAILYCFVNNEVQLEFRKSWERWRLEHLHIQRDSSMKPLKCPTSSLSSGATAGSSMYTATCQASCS

GLP-1 receptor [4] = target: T2, GLP-1 receptor; experiment: PathHunter β-arrestin assay, GLP-1 receptor; design: host or cells: PathHunter CHO-K1 GLP1R β-Arrestin Cell Line; settings: β-arrestin-2 recruitment, PathHunter CHO-K1 GLP1R β-Arrestin Cell Line, 90 min at 37° C.; normalized to GLP-1; read-out: GLP-1R β Arrestin EC50

`CC[C@H](C)[C@H](NC(=O)[C@H](CC(C)C)NC(=O)[C@H](Cc1c[nH]c2ccccc12)NC(=O)[C@H](CCC(N)=O)NC(=O)[C@@H](NC(=O)[C@H](Cc1ccccc1)NC(=O)[C@H](C)NC(=O)[C@H](CCCCNC(=O)COCCOCCNC(=O)COCCOCCNC(=O)CC[C@H](NC(=O)CCCCCCCCCCCCCCCCCCC(=O)O)C(=O)O)NC(=O)[C@H](CCC(N)=O)NC(=O)[C@H](C)NC(=O)[C@@H](NC(=O)[C@H](CCCCN)NC(=O)[C@H](CC(=O)O)NC(=O)[C@H](CC(C)C)NC(=O)C(C)(C)NC(=O)[C@@H](NC(=O)[C@H](CO)NC(=O)[C@H](Cc1ccc(O)cc1)NC(=O)[C@H](CC(=O)O)NC(=O)[C@H](CO)NC(=O)[C@@H](NC(=O)[C@H](Cc1ccccc1)NC(=O)[C@@H](NC(=O)CNC(=O)[C@H](CCC(=O)O)NC(=O)CCNC(=O)C(F)(F)c1ccc(F)cc1)[C@@H](C)O)[C@@H](C)O)[C@@H](C)CC)[C@@H](C)CC)C(C)C)C(=O)N[C@@H](C)C(=O)NCC(=O)NCC(=O)N1CCC[C@H]1C(=O)N[C@@H](CO)C(=O)N[C@@H](CO)C(=O)NCC(=O)N[C@@H](C)C(=O)N1CCC[C@H]1C(=O)N1CCC[C@H]1C(=O)N1CCC[C@H]1C(=O)N[C@@H](CO)C(N)=O` [Compound 188] ({X4-βAla}-EGTFTSDYSI[Aib]LDKIAQK([AEEA-AEEA-γGlu-C20 diacid])AFVQWLIAGGPSSGAPPPS-NH2) was tested, and the EC50 (GIP receptor [1]) was > 1000 nM, the EC50 (GIP receptor [2]) was 10 to 100 nM and the Emax (GIP receptor [2]) was 79%. The EC50 (GLP-1 receptor [3]) was 0.1 to 1 nM, the Emax (GLP-1 receptor [3]) was 91% and the EC50 (GLP-1 receptor [4]) was > 1000 nM.

With `CC[C@H](C)[C@H](NC(=O)[C@H](CC(C)C)NC(=O)[C@H](Cc1c[nH]c2ccccc12)NC(=O)[C@H](CCC(N)=O)NC(=O)[C@@H](NC(=O)[C@H](Cc1ccccc1)NC(=O)[C@H](C)NC(=O)[C@H](CCCCNC(=O)COCCOCCNC(=O)COCCOCCNC(=O)CC[C@H](NC(=O)CCCCCCCCCCCCCCCCCCC(=O)O)C(=O)O)NC(=O)[C@H](CCC(N)=O)NC(=O)[C@H](C)NC(=O)[C@@H](NC(=O)[C@H](CCCCN)NC(=O)[C@H](CC(=O)O)NC(=O)[C@H](CC(C)C)NC(=O)C(C)(C)NC(=O)[C@@H](NC(=O)[C@H](CO)NC(=O)[C@H](Cc1ccc(O)cc1)NC(=O)[C@H](CC(=O)O)NC(=O)[C@H](CO)NC(=O)[C@@H](NC(=O)[C@H](Cc1ccccc1)NC(=O)[C@@H](NC(=O)CNC(=O)[C@H](CCC(=O)O)NC(=O)CCCNC(=O)CNC(=O)Nc1ccc(OC(F)(F)F)cc1)[C@@H](C)O)[C@@H](C)O)[C@@H](C)CC)[C@@H](C)CC)C(C)C)C(=O)N[C@@H](C)C(=O)NCC(=O)NCC(=O)N1CCC[C@H]1C(=O)N[C@@H](CO)C(=O)N[C@@H](CO)C(=O)NCC(=O)N[C@@H](C)C(=O)N1CCC[C@H]1C(=O)N1CCC[C@H]1C(=O)N1CCC[C@H]1C(=O)N[C@@H](CO)C(N)=O` [Compound 269] ({NH(4-OCF3-phenyl)-CO}-G[GABA]EGTFTSDYSI[Aib]LDKIAQK([AEEA-AEEA-γGlu-C20 diacid])AFVQWLIAGGPSSGAPPPS-NH2) the EC50 (GIP receptor [1]) was < 1000 nM, the EC50 (GIP receptor [2]) was 1 to 10 nM and the Emax (GIP receptor [2]) was 103%. The EC50 (GLP-1 receptor [3]) was 1 to 10 nM, the Emax (GLP-1 receptor [3]) was 96% and the EC50 (GLP-1 receptor [4]) was > 1000 nM.

For `CC[C@H](C)[C@H](NC(=O)[C@H](CC(C)C)NC(=O)[C@H](Cc1c[nH]c2ccccc12)NC(=O)[C@H](CCC(N)=O)NC(=O)[C@@H](NC(=O)[C@H](Cc1ccccc1)NC(=O)[C@H](C)NC(=O)[C@H](CCCCNC(=O)COCCOCCNC(=O)COCCOCCNC(=O)CC[C@H](NC(=O)CCCCCCCCCCCCCCCCCCC(=O)O)C(=O)O)NC(=O)[C@H](CCC(N)=O)NC(=O)[C@H](C)NC(=O)[C@@H](NC(=O)[C@H](CCCCN)NC(=O)[C@H](CC(=O)O)NC(=O)[C@H](CC(C)C)NC(=O)C(C)(C)NC(=O)[C@@H](NC(=O)[C@H](CO)NC(=O)[C@H](Cc1ccc(O)cc1)NC(=O)[C@H](CC(=O)O)NC(=O)[C@H](CO)NC(=O)[C@@H](NC(=O)[C@H](Cc1ccccc1)NC(=O)[C@@H](NC(=O)CNC(=O)[C@H](CCC(=O)O)NC(=O)CCNC(=O)C1(c2cccc(F)c2)CC1)[C@@H](C)O)[C@@H](C)O)[C@@H](C)CC)[C@@H](C)CC)C(C)C)C(=O)N[C@@H](C)C(=O)NCC(=O)NCC(=O)N1CCC[C@H]1C(=O)N[C@@H](CO)C(=O)N[C@@H](CO)C(=O)NCC(=O)N[C@@H](C)C(=O)N1CCC[C@H]1C(=O)N1CCC[C@H]1C(=O)N1CCC[C@H]1C(=O)N[C@@H](CO)C(N)=O` [Compound 206] ({X15-βAla}-EGTFTSDYSI[Aib]LDKIAQK([AEEA-AEEA-γGlu-C20 diacid])AFVQWLIAGGPSSGAPPPS-NH2), the EC50 (GIP receptor [1]) was > 1000 nM, the EC50 (GIP receptor [2]) was 10 to 100 nM and the Emax (GIP receptor [2]) was 106%. The EC50 (GLP-1 receptor [3]) was 1 to 10 nM, the Emax (GLP-1 receptor [3]) was 98% and the EC50 (GLP-1 receptor [4]) was > 1000 nM.

`CC[C@H](C)[C@H](NC(=O)[C@H](CC(C)C)NC(=O)[C@H](Cc1c[nH]c2ccccc12)NC(=O)[C@H](CCC(N)=O)NC(=O)[C@@H](NC(=O)[C@H](Cc1ccccc1)NC(=O)[C@H](CCC(=O)O)NC(=O)[C@H](CCCCNC(=O)COCCOCCNC(=O)COCCOCCNC(=O)CC[C@H](NC(=O)CCCCCCCCCCCCCCCCCCC(=O)O)C(=O)O)NC(=O)[C@H](CCC(N)=O)NC(=O)[C@H](C)NC(=O)[C@@H](NC(=O)[C@H](CCCCN)NC(=O)[C@H](CC(=O)O)NC(=O)[C@H](CC(C)C)NC(=O)C(C)(C)NC(=O)[C@@H](NC(=O)[C@H](CO)NC(=O)[C@H](Cc1ccc(O)cc1)NC(=O)[C@H](CC(=O)O)NC(=O)[C@H](CO)NC(=O)[C@@H](NC(=O)[C@H](Cc1ccccc1)NC(=O)[C@@H](NC(=O)CNC(=O)[C@H](CCC(=O)O)NC(=O)CCNC(=O)C(C)(C)c1cc(F)cc(C#N)c1)[C@@H](C)O)[C@@H](C)O)[C@@H](C)CC)[C@@H](C)CC)C(C)C)C(=O)N[C@@H](C)C(=O)NCC(=O)NCC(=O)N1CCC[C@H]1C(=O)N[C@@H](CO)C(=O)N[C@@H](CO)C(=O)NCC(=O)N[C@@H](C)C(=O)N1CCC[C@H]1C(=O)N1CCC[C@H]1C(=O)N1CCC[C@H]1C(=O)N[C@@H](CO)C(N)=O` [Compound 196] ({Isobutyryl(2-(3-CN-5-F-Ph))-βAla}-EGTFTSDYSI[Aib]LDKIAQK([AEEA-AEEA-γGlu-C20 diacid])EFVQWLIAGGPSSGAPPPS-NH2) was tested, and the EC50 (GIP receptor [1]) was > 1000 nM, the EC50 (GIP receptor [2]) was 1 to 10 nM and the Emax (GIP receptor [2]) was 100%. For the same compound, the EC50 (GLP-1 receptor [3]) was 0.1 to 1 nM, the Emax (GLP-1 receptor [3]) was 95% and the EC50 (GLP-1 receptor [4]) was > 1000 nM.

With `CC[C@H](C)[C@H](NC(=O)[C@H](CC(C)C)NC(=O)[C@H](Cc1c[nH]c2ccccc12)NC(=O)[C@H](CCC(N)=O)NC(=O)[C@@H](NC(=O)[C@H](Cc1ccccc1)NC(=O)[C@H](C)NC(=O)[C@H](CCCCNC(=O)COCCOCCNC(=O)COCCOCCNC(=O)CC[C@H](NC(=O)CCCCCCCCCCCCCCCCCCC(=O)O)C(=O)O)NC(=O)[C@H](CCC(N)=O)NC(=O)[C@H](C)NC(=O)[C@@H](NC(=O)[C@H](CCCCN)NC(=O)[C@H](CC(=O)O)NC(=O)[C@H](CC(C)C)NC(=O)C(C)(C)NC(=O)[C@@H](NC(=O)[C@H](CO)NC(=O)[C@H](Cc1ccc(O)cc1)NC(=O)[C@H](CC(=O)O)NC(=O)[C@H](CO)NC(=O)[C@@H](NC(=O)[C@H](Cc1ccccc1)NC(=O)[C@@H](NC(=O)CNC(=O)[C@@H](CC(=O)O)NC(=O)CCNC(=O)C1(c2ccccc2)CNC(=O)C1)[C@@H](C)O)[C@@H](C)O)[C@@H](C)CC)[C@@H](C)CC)C(C)C)C(=O)N[C@@H](C)C(=O)NCC(=O)NCC(=O)N1CCC[C@H]1C(=O)N[C@@H](CO)C(=O)N[C@@H](CO)C(=O)NCC(=O)N[C@@H](C)C(=O)N1CCC[C@H]1C(=O)N1CCC[C@H]1C(=O)N1CCC[C@H]1C(=O)N[C@@H](CO)C(N)=O` (stereo partly drawn) [Compound 122] ({X27-βAla}-[dD]GTFTSDYSI[Aib]LDKIAQK([AEEA-AEEA-γGlu-C20 diacid])AFVQWLIAGGPSSGAPPPS-NH2) the EC50 (GIP receptor [1]) was < 1000 nM, the EC50 (GIP receptor [2]) was 10 to 100 nM and the Emax (GIP receptor [2]) was 92%. The EC50 (GLP-1 receptor [3]) was 1 to 10 nM, the Emax (GLP-1 receptor [3]) was 100% and the EC50 (GLP-1 receptor [4]) was > 1000 nM.
